Source: ChEMBL document CHEMBL1133808, “The discovery of sulfonylated dipeptides as potent VLA-4 antagonists” (Bioorg Med Chem Lett, 2001)
Starred links: 1 amine or outer side, 2 acyl side, 3 side chain; linkers in the order of their positions; H or OH if unused. Non-standard residues stand in square brackets, D forms with d. Residues, ends and D or L forms follow the SMILES beside them. *: point of attachment. X1 = O=C(Cc1ccc(N[*:1])cc1)[*:2]; NH(2-Me-phenyl) = Cc1ccccc1N*; CO = O=C([*:1])[*:2]

System: not listed separately
Assay: Plasma half-life in Sprague-Dawley rats
Format: ADME, organism-based
Details: rat
`COc1cccc(OC)c1-c1ccc(C[C@H](NC(=O)[C@]2(C)CCN2S(=O)(=O)c2cc(Cl)cc(Cl)c2)C(=O)O)cc1` gave a half-life of 1.5 h. `C[C@@]1(C(=O)N[C@@H](Cc2ccc(-c3ccccc3C(N)=O)cc2)C(=O)O)CCCN1S(=O)(=O)c1cc(Cl)cc(Cl)c1` showed a half-life of 1.1 h.

Target: T1, Integrin alpha-4/beta-7 (Homo sapiens, UniProt P13612+P26010)
T1 sequence (P13612 whole entry): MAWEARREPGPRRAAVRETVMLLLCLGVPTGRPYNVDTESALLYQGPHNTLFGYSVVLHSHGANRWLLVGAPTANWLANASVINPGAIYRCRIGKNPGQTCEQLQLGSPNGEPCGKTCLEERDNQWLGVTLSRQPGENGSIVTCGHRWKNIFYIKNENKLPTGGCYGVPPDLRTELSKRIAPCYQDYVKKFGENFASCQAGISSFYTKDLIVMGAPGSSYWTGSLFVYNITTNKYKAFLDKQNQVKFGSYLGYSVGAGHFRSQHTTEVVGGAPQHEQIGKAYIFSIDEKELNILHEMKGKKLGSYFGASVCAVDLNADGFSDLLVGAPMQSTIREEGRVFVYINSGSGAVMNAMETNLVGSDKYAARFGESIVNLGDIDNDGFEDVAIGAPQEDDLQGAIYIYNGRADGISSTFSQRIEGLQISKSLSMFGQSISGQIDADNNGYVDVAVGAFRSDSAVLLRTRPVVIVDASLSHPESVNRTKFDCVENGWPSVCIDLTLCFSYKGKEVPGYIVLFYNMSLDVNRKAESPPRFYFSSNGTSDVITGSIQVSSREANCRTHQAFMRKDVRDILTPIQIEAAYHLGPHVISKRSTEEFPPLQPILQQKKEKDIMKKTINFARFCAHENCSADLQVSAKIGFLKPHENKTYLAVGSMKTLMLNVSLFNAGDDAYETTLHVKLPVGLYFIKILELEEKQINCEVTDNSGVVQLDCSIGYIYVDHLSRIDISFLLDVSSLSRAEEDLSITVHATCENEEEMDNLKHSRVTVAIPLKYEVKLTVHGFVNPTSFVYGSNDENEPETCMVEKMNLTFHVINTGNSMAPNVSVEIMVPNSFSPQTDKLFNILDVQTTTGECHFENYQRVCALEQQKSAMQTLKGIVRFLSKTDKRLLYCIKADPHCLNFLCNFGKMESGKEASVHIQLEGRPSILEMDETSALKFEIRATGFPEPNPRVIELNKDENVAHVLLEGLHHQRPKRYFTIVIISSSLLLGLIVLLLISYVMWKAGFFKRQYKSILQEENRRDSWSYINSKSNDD
T1 sequence (P26010 whole entry): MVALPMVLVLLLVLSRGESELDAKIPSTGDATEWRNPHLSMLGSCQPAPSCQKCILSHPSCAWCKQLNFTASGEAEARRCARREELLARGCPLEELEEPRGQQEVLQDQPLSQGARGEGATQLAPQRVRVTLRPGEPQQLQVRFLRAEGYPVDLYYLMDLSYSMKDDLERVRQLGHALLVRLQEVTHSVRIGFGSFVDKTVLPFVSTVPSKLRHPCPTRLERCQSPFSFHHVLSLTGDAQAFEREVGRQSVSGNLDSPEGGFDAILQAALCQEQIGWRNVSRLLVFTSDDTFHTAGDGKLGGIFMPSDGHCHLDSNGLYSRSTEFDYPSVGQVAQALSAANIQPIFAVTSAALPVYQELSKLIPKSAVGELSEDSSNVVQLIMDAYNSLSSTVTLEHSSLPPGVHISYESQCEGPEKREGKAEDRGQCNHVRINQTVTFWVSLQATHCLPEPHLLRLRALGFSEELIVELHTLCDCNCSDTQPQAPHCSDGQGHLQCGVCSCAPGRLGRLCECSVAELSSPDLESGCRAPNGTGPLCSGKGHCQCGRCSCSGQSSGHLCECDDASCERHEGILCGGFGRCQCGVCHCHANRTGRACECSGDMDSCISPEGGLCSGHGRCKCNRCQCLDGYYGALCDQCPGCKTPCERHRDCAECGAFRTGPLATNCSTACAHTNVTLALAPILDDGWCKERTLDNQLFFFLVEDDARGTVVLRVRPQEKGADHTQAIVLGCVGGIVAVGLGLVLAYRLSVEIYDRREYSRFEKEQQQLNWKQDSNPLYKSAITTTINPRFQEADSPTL
Assay: Inhibition of [125I]MAdCAM-Ig binding to alpha4-beta7 integrin of human RPMI-8866 cells
Format: cell-based
Details: not given
Work on `C[C@@]1(C(=O)N[C@@H](Cc2ccc(-c3nc[nH]n3)cc2)C(=O)O)CCCN1S(=O)(=O)c1cc(Cl)cc(Cl)c1` yielded an IC50 of 949 nM. With `COc1cccc(C#N)c1-c1ccc(C[C@H](NC(=O)[C@]2(C)CCCN2S(=O)(=O)c2cc(Cl)cc(Cl)c2)C(=O)O)cc1` the IC50 was 77 nM. In the case of `COc1cccc(OC)c1-c1ccc(C[C@H](NC(=O)[C@]2(C)CCN2S(=O)(=O)c2cc(Cl)cc(Cl)c2)C(=O)O)cc1`, the IC50 is reported as 14.2 nM. For `C[C@@]1(C(=O)N[C@@H](Cc2ccc(-c3c(O)cccc3O)cc2)C(=O)O)CCCN1S(=O)(=O)c1cc(Cl)cc(Cl)c1`, the IC50 was 670 nM. With `CC(C)C(=O)Oc1cccc(OC(=O)C(C)C)c1-c1ccc(C[C@H](NC(=O)[C@]2(C)CCCN2S(=O)(=O)c2cc(Cl)cc(Cl)c2)C(=O)O)cc1` the IC50 was 3550 nM. In the case of `COc1cccc(OC)c1-c1ccc(C[C@H](NC(=O)[C@@H]2CCN2S(=O)(=O)c2cc(Cl)cc(Cl)c2)C(=O)O)cc1`, the IC50 is reported as 10.6 nM. `Cc1ccccc1NC(=O)Nc1ccc(CC(=O)N[C@@H](CC(C)C)C(=O)N[C@@H](CC(=O)O)C(=O)N[C@H](C(=O)N2CCC[C@H]2C(=O)O)C(C)C)cc1` ({NH(2-Me-phenyl)-CO}-[X1]LDVP-OH) showed an IC50 of 862 nM.

Target: Integrin alpha-4/beta-1 (Homo sapiens, UniProt P05556+P13612)
Sequence (P05556 whole entry, one chain of several): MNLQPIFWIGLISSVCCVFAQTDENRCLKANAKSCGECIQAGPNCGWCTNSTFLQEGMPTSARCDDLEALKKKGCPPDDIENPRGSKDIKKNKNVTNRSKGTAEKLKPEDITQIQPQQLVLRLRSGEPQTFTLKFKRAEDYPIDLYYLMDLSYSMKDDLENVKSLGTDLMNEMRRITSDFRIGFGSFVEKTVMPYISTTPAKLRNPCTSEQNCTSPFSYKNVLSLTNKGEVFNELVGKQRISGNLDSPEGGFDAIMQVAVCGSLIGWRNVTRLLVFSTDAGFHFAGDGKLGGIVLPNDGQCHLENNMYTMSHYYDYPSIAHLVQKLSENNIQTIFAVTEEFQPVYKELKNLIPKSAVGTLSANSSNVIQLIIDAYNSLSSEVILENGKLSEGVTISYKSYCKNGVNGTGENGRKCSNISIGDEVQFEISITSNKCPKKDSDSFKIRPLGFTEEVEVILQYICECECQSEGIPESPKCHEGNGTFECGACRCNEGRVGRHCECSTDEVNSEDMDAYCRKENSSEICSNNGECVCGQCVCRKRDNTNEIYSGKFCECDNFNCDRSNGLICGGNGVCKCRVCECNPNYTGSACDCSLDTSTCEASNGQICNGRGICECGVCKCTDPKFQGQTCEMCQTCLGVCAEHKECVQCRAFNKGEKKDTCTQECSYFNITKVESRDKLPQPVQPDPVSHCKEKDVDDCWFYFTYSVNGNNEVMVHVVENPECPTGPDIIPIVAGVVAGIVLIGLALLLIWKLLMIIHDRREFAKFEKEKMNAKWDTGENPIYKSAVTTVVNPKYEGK
Assay: Antagonistic activity against VLA-4 integrin of human jurkat cells using [125I]VCAM-Ig as radioligand
Format: functional, cell-based
Details: not given
For `NC(=O)c1ccccc1-c1ccc(C[C@H](NC(=O)[C@@H]2CCCN2S(=O)(=O)c2cc(Cl)cc(Cl)c2)C(=O)O)cc1`, the IC50 was 0.09 nM. In the case of `C[C@@]1(C(=O)N[C@@H](Cc2ccc(-c3ccccc3S(C)(=O)=O)cc2)C(=O)O)CCCN1S(=O)(=O)c1cc(Cl)cc(Cl)c1`, the IC50 is reported as 0.16 nM. For `COc1cccc(OC)c1-c1ccc(C[C@H](NC(=O)[C@@H]2CCCN2S(=O)(=O)c2cc(Cl)cc(Cl)c2)C(=O)O)cc1`, the IC50 was 0.09 nM. Work on `O=C(O)[C@H](Cc1ccc(-c2ccc(F)cc2)cc1)NC(=O)[C@@H]1CCCN1S(=O)(=O)c1cc(Cl)cc(Cl)c1` yielded an IC50 of 0.9 nM. For `CS(=O)(=O)c1ccccc1-c1ccc(C[C@H](NC(=O)[C@@H]2CCCN2S(=O)(=O)c2cc(Cl)cc(Cl)c2)C(=O)O)cc1`, the IC50 was 0.1 nM. `Cc1ccccc1-c1ccc(C[C@H](NC(=O)[C@@H]2CCCN2S(=O)(=O)c2cc(Cl)cc(Cl)c2)C(=O)O)cc1` showed an IC50 of 1.43 nM. Work on `C[C@@]1(C(=O)N[C@@H](Cc2ccc(-c3ccccc3Cl)cc2)C(=O)O)CCCN1S(=O)(=O)c1cc(Cl)cc(Cl)c1` yielded an IC50 of 192 nM. Compound `CSc1ccccc1-c1ccc(C[C@H](NC(=O)[C@]2(C)CCCN2S(=O)(=O)c2cc(Cl)cc(Cl)c2)C(=O)O)cc1` has an IC50 of 0.65 nM. `O=C(O)c1cccc(-c2ccc(C[C@H](NC(=O)[C@@H]3CCCN3S(=O)(=O)c3cc(Cl)cc(Cl)c3)C(=O)O)cc2)c1` showed an IC50 of 0.54 nM. In the case of `C[C@@]1(C(=O)N[C@@H](Cc2ccc(-c3nc[nH]n3)cc2)C(=O)O)CCCN1S(=O)(=O)c1cc(Cl)cc(Cl)c1`, the IC50 is reported as 0.52 nM. In the case of `C[C@@]1(C(=O)N[C@@H](Cc2ccc(-c3cccc(C#N)c3)cc2)C(=O)O)CCCN1S(=O)(=O)c1cc(Cl)cc(Cl)c1`, the IC50 is reported as 1.12 nM. For `COC(=O)c1cccc(-c2ccc(C[C@H](NC(=O)[C@@H]3CCCN3S(=O)(=O)c3cc(Cl)cc(Cl)c3)C(=O)O)cc2)c1`, the IC50 was 0.4 nM. With `C[C@@]1(C(=O)N[C@@H](Cc2ccc(-c3ncccc3C#N)cc2)C(=O)O)CCCN1S(=O)(=O)c1cc(Cl)cc(Cl)c1` the IC50 was 0.14 nM. Compound `N#Cc1cccc(-c2ccc(C[C@H](NC(=O)[C@@H]3CCCN3S(=O)(=O)c3cc(Cl)cc(Cl)c3)C(=O)O)cc2)c1` has an IC50 of 0.39 nM. In the case of `COc1cccc(C#N)c1-c1ccc(C[C@H](NC(=O)[C@]2(C)CCCN2S(=O)(=O)c2cc(Cl)cc(Cl)c2)C(=O)O)cc1`, the IC50 is reported as 0.28 nM. `COc1cccc(OC)c1-c1ccc(C[C@H](NC(=O)[C@]2(C)CCN2S(=O)(=O)c2cc(Cl)cc(Cl)c2)C(=O)O)cc1` gave an IC50 of 0.07 nM. `C[C@@]1(C(=O)N[C@@H](Cc2ccc(-c3c(O)cccc3O)cc2)C(=O)O)CCCN1S(=O)(=O)c1cc(Cl)cc(Cl)c1` gave an IC50 of 0.5 nM. For `CC(C)C(=O)Oc1cccc(OC(=O)C(C)C)c1-c1ccc(C[C@H](NC(=O)[C@]2(C)CCCN2S(=O)(=O)c2cc(Cl)cc(Cl)c2)C(=O)O)cc1`, the IC50 was 4.5 nM. Compound `C[C@@]1(C(=O)N[C@@H](Cc2ccc(-c3ccccc3C(N)=O)cc2)C(=O)O)CCCN1S(=O)(=O)c1cc(Cl)cc(Cl)c1` has an IC50 of 0.14 nM.

System: not listed separately
Assay: Plasma clearance in Sprague-Dawley rats
Format: ADME, organism-based
Details: rat, read-out: Clp
Work on `COc1cccc(OC)c1-c1ccc(C[C@H](NC(=O)[C@]2(C)CCN2S(=O)(=O)c2cc(Cl)cc(Cl)c2)C(=O)O)cc1` yielded a clearance of over 100 mL/min/kg. `COc1cccc(OC)c1-c1ccc(C[C@H](NC(=O)[C@@H]2CCN2S(=O)(=O)c2cc(Cl)cc(Cl)c2)C(=O)O)cc1` gave a clearance of over 100 mL/min/kg.

Target: T1, Integrin alpha-4/beta-7
Assay: Inhibition of [125I]VCAM-Ig binding to alpha4-beta7 integrin of human RPMI-8866 cells
Format: cell-based
Details: not given
`C[C@@]1(C(=O)N[C@@H](Cc2ccc(-c3ccccc3S(C)(=O)=O)cc2)C(=O)O)CCCN1S(=O)(=O)c1cc(Cl)cc(Cl)c1` showed an IC50 of 13.2 nM. `C[C@@]1(C(=O)N[C@@H](Cc2ccc(-c3ccccc3Cl)cc2)C(=O)O)CCCN1S(=O)(=O)c1cc(Cl)cc(Cl)c1` showed an IC50 of 2260 nM. In the case of `CSc1ccccc1-c1ccc(C[C@H](NC(=O)[C@]2(C)CCCN2S(=O)(=O)c2cc(Cl)cc(Cl)c2)C(=O)O)cc1`, the IC50 is reported as 78.2 nM. `C[C@@]1(C(=O)N[C@@H](Cc2ccc(-c3cccc(C#N)c3)cc2)C(=O)O)CCCN1S(=O)(=O)c1cc(Cl)cc(Cl)c1` showed an IC50 of 1140 nM. Work on `C[C@@]1(C(=O)N[C@@H](Cc2ccc(-c3ccccc3C(N)=O)cc2)C(=O)O)CCCN1S(=O)(=O)c1cc(Cl)cc(Cl)c1` yielded an IC50 of 24.3 nM. For `Cc1ccccc1NC(=O)Nc1ccc(CC(=O)N[C@@H](CC(C)C)C(=O)N[C@@H](CC(=O)O)C(=O)N[C@H](C(=O)N2CCC[C@H]2C(=O)O)C(C)C)cc1` ({NH(2-Me-phenyl)-CO}-[X1]LDVP-OH), the IC50 was 433 nM.
